Reference: patent US4169941A, “Derivatives of XK-88-5 and process for the production thereof” (Abbott Laboratories, priority 1976, dated 1979)
In brackets after ≈: the same amount, converted by molar mass. Like-named read-outs stand apart in the source and are kept apart here.

Tests used:
[1] = tested on: various Gram-positive and Gram-negative bacteria; conditions: in words; parent antibiotic, background; cited from earlier work
Proteus vulgaris KY 4277 = test: MIC, agar dilution method (pH 8.0); format: cell-based; conditions: KY4277, read-out: minimum inhibitory concentration (MIC)
Description: (§1) The following Table 1 illustrates minimum inhibitory concentrations (MIC) of 2"-N-formyl-XK-88-5 against various Gram-positive and Gram-negative bacteria determined by agar dilution method (pH 8.0).

[2] = tested on: Staphylococcus aureus Ky 4279; test: MIC, agar dilution method (pH 8.0); format: cell-based; conditions: KY4279, read-out: minimum inhibitory concentration (MIC)
Description: as §1

[3] = tested on: Salmonella typhosa KY 4278; test: MIC, agar dilution method (pH 8.0); format: cell-based; conditions: Salmonella enterica, pH 8, read-out: minimum inhibitory concentration (MIC)
Description: as §1

[4] = tested on: Bacillus subtilis KY 4273; test: MIC, agar dilution method (pH 8.0); format: cell-based; conditions: KY4273, read-out: minimum inhibitory concentration (MIC)
Description: as §1

Vibrio percolans KY 4174 = test: MIC, agar dilution method (pH 8.0); format: cell-based; conditions: Comamonas terrigena, KY4174, read-out: minimum inhibitory concentration (MIC)
Description: as §1

Escherichia coli KY 4271 = test: MIC, agar dilution method (pH 8.0); format: cell-based; conditions: KY4271, read-out: minimum inhibitory concentration (MIC)
Description: as §1

Erwinia aroideae KY 3241 = test: MIC, agar dilution method (pH 8.0); format: cell-based; conditions: Pectobacterium carotovorum, KY3241, read-out: minimum inhibitory concentration (MIC)
Description: as §1

[5] = tested on: Klebsiella pheumoniae KY 4275; test: MIC, agar dilution method (pH 8.0); format: cell-based; conditions: KY4275, read-out: minimum inhibitory concentration (MIC)
Description: as §1

Shigella sonnei KY 4281 = test: MIC, agar dilution method (pH 8.0); format: cell-based; conditions: KY4281, read-out: minimum inhibitory concentration (MIC)
Description: as §1

[6] = tested on: Pseudomonas alkaligenes KY 4656; test: MIC, agar dilution method (pH 8.0); format: cell-based; conditions: KY4656, read-out: minimum inhibitory concentration (MIC)
Description: as §1

[7] = tested on: various Gram-positive and Gram-negative bacteria; test: antibacterial activity (general statement); format: cell-based; conditions: in words
Description: as §1

Row | Structure (SMILES) | antibacterial activity [1] | MIC (Proteus vulgaris KY 4277) [µg/mL] | MIC [2] [µg/mL] | MIC [3] [µg/mL] | MIC [4] [µg/mL] | MIC (Vibrio percolans KY 4174) [µg/mL] | MIC (Escherichia coli KY 4271) [µg/mL] | MIC (Erwinia aroideae KY 3241) [µg/mL] | MIC [5] [µg/mL] | MIC (Shigella sonnei KY 4281) [µg/mL] | MIC [6] [µg/mL] | antibacterial activity [7]
1 | COC1COC(OC2C(N)CC(N)C(OC3OC(CN)CC(O)C3N)C2O)C(N)C1N (stereo not drawn) [XK-88-5] | high antibacterial activity |  |  |  |  |  |  |  |  |  |  | 
2 | COC1COC(OC2C(N)CC(N)C(OC3OC(CN)CC(O)C3N)C2O)C(NC=O)C1N (stereo not drawn) [2"-N-formyl-XK-88-5] |  | 2.5 (≈ 5.22 µM) | 0.32 (≈ 0.669 µM) | 2.5 (≈ 5.22 µM) | 0.32 (≈ 0.669 µM) | 10 (≈ 20.9 µM) | 2.5 (≈ 5.22 µM) | 1.25 (≈ 2.61 µM) | 0.64 (≈ 1.34 µM) | 2.5 (≈ 5.22 µM) | 2.5 (≈ 5.22 µM) | strong antibacterial activity
